One data set concerns the target D(2) dopamine receptor (Homo sapiens, UniProt P14416). The data set can be described thus: Antagonist activity at Dopamine D2 receptor (unknown origin). It is filed as functional.
A short description of data set [1]: Effect on cleaved PARP level in human NCI-H69 cells assessed as relative expression at 1000 nM measured after 14 days by Western blot analysis (reference value: 0.03). It is filed as functional. Particulars: time 14 day. In general terms: A western blot detects proteins with antibodies after separation by electrophoresis.
The target in the next data set is Substance-P receptor (Homo sapiens, UniProt P25103). Briefly: Antagonist activity at NK1 receptor (unknown origin). Type of data set: functional.
Sequence of Substance-P receptor (P25103 whole entry): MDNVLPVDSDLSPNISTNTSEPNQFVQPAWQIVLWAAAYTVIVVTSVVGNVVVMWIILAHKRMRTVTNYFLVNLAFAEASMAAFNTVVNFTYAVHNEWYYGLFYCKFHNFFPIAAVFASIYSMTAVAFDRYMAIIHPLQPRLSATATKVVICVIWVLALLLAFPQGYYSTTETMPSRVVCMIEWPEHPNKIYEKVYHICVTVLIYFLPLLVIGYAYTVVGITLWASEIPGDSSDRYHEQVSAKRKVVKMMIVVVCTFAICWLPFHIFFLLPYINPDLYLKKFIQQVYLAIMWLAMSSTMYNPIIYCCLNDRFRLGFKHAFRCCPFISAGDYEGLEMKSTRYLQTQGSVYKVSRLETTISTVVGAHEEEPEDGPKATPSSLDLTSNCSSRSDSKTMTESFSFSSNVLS
Data set [2] is described as follows: Effect on cleaved PARP level in human NCI-H1417 cells assessed as relative expression at 10 nM measured after 14 days by Western blot analysis (reference value: 0.38). Type of data set: functional. Conditions: time 14 day.
The target in data set [3] is T1, Muscarinic acetylcholine receptor M1 (Homo sapiens, UniProt P11229).
T1 sequence (P11229 whole entry): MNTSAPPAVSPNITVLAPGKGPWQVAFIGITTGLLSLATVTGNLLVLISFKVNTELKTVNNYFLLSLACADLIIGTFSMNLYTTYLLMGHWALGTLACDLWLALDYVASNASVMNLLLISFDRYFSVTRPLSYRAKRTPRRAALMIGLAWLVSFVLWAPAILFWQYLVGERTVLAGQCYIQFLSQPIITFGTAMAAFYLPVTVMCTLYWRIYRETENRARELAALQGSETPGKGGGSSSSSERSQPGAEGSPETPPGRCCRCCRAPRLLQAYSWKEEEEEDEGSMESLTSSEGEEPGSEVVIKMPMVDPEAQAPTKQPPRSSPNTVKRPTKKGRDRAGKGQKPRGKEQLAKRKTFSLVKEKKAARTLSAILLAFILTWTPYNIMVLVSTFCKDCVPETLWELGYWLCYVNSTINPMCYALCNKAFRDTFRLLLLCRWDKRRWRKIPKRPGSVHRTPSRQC
The data set can be described thus: Agonist activity at Muscarinic M1 receptor (unknown origin). It is filed as functional.

Data set [4] is described as follows: Toxicity in rat assessed as myelofibrosis measured for 28 days. Particulars: in vivo, 672 h, time 28 day.
A short description of data set [5]: Effect on cleaved PARP level in human NCI-H146 cells assessed as relative expression at 1000 nM measured after 14 days by Western blot analysis (reference value: 2.42). It is filed as functional. Conditions: time 14 day.
Data set [6] is described as follows: Effect on cleaved PARP level in human NCI-H69 cells assessed as relative expression at 1000 nM measured after 7 days by Western blot analysis (reference value: 0.02). It is filed as functional. Conditions: time 7 day.
Data set [7] can be described thus: Effect on cleaved PARP level in human NCI-H69 cells assessed as fold change at 100 nM measured after 7 days by Western blot analysis (reference value: 1.00). Type of data set: functional. Particulars: time 7 day.
Data set [8] can be described thus: Effect on cleaved PARP level in human NCI-H1417 cells assessed as fold change at 10 nM measured after 10 days by Western blot analysis (reference value: 1.00). Conditions: time 10 day. Type of data set: functional.
Data set [9] in a line: Toxicity in rat assessed as neutrophenia measured for 28 days. Conditions: in vivo, 672 h, time 28 day.
Data set [10] can be described thus: Effect on cleaved PARP level in human NCI-H1694 cells assessed as fold change at 100 nM measured after 14 days by Western blot analysis (reference value: 1.00). Particulars: time 14 day. It is filed as functional.
Data set [11] in a line: Effect on cleaved PARP level in human NCI-H2171 cells assessed as relative expression at 100 nM measured after 14 days by Western blot analysis (reference value: 0.01). It is filed as functional. Conditions: time 14 day.
Data set [12] has as its target Beta-2 adrenergic receptor (Homo sapiens, UniProt P07550). Briefly: Agonist activity at Adrenergic b2 receptor (unknown origin). Type of data set: functional.
Data set [13] is described as follows: Effect on cleaved PARP level in human NCI-H2171 cells assessed as relative expression at 100 nM measured after 10 days by Western blot analysis (reference value: 0.02). Conditions: time 10 day. Type of data set: functional.
Data set [14] is described as follows: Effect on cleaved PARP level in human NCI-H524 cells assessed as fold change at 100 nM measured after 10 days by Western blot analysis (reference value: 1.00). It is filed as functional. Conditions: time 10 day.
For data set [15], the system named is NCI-H526. The data set can be described thus: In vivo inhibition of LSD1 in human NCI-H526 cells xenografted in nude mouse assessed as change in UMODL1 gene expression administrated daily for 5 days by qRT-PCR analysis. It is filed as functional, organism-based. Particulars: dose 0.02-135 mg/kg, time 5.0 day. A general note: In xenograft studies the graft and the host belong to different species.

Data set [16] is described as follows: Effect on cleaved PARP level in human NCI-H1694 cells assessed as fold change at 1000 nM measured after 7 days by Western blot analysis (reference value: 1.00). It is filed as functional. Conditions: time 7 day.
Data set [17] concerns the target Amine oxidase [flavin-containing] B (Homo sapiens, UniProt P27338). Briefly: Inhibition of MAO-B (unknown origin).
A short description of data set [18]: Inhibition of COX (unknown origin). Further details: species or system Homo sapiens.
The target of another data set is Vasopressin V1a receptor (Homo sapiens, UniProt P37288). The data set can be described thus: Antagonist activity at V1a receptor (unknown origin). Type of data set: functional.
Sequence of Vasopressin V1a receptor (P37288 whole entry): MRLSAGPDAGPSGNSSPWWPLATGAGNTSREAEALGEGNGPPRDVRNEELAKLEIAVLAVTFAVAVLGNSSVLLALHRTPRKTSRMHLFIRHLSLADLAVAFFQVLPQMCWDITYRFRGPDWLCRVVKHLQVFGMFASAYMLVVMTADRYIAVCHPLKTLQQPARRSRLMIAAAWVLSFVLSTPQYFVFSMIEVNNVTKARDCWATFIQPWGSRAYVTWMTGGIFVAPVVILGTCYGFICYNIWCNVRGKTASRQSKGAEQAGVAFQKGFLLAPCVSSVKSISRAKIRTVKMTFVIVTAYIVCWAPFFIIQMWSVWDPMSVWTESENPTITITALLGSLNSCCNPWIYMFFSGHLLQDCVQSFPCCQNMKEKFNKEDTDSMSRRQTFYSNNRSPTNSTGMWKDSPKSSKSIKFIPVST
The target of data set [19] is Voltage-gated inwardly rectifying potassium channel KCNH2 (Homo sapiens, UniProt Q12809). Briefly: Inhibition of hERG (unknown origin). It is filed as toxicity. For orientation: hERG is a cardiac potassium channel; its block is linked to QT prolongation.
Sequence of Voltage-gated inwardly rectifying potassium channel KCNH2 (Q12809 whole entry): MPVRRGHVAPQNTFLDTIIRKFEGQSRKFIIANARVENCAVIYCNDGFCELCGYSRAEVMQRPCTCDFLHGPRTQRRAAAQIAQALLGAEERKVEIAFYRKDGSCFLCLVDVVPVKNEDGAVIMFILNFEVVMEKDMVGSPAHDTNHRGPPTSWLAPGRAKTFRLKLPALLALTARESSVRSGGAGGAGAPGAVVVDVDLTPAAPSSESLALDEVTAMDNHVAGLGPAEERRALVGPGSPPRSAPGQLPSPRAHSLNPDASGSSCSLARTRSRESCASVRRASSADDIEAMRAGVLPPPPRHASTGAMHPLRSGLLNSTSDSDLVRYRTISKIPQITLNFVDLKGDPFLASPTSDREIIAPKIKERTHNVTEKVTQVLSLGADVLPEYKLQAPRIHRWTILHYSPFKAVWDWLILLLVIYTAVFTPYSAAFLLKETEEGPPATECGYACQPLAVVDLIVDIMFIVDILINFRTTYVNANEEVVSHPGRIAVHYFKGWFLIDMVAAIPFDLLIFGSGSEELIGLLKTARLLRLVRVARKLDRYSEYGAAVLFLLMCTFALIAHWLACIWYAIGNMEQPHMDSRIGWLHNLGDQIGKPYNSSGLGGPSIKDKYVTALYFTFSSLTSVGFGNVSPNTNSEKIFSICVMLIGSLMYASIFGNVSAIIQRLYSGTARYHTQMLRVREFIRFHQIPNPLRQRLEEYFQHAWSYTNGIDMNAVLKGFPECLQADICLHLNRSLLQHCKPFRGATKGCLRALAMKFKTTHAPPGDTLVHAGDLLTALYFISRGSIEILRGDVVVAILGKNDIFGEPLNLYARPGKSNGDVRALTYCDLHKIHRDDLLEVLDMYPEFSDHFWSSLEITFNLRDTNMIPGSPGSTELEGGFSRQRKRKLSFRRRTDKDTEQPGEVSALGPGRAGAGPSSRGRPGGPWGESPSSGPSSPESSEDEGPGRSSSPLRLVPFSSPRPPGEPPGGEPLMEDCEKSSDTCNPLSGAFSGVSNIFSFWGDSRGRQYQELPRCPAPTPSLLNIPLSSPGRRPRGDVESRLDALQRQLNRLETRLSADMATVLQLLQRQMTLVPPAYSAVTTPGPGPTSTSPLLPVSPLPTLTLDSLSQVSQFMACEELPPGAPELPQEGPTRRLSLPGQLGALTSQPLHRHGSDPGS
A short description of data set [20]: Effect on cleaved PARP level in human NCI-H1417 cells assessed as fold change at 100 nM measured after 10 days by Western blot analysis (reference value: 1.00). Type of data set: functional. Conditions: time 10 day.
Data set [21] is described as follows: Toxicity in mouse xenografted with human NCI-H526 cells assessed as drug tolerance at 1.5 mg/kg, po administered daily measured for 30 days. It is filed as organism-based. Conditions: in vivo, 720 h, time 30 day.
Data set [22] is described as follows: Effect on cleaved PARP level in human NCI-H1417 cells assessed as fold change at 1000 nM measured after 7 days by Western blot analysis (reference value: 1.00). Conditions: time 7 day. Type of data set: functional.
Data set [23] deals with NCI-H526. Briefly: Upregulation of LSD1 signal enrichment at typical enhancers in human NCI-H526 cells at 1 uM. Type of data set: functional, cell-based.
The next data set deals with NCI-H446. The data set can be described thus: Effect on NCAM gene expression in human NCI-H446 cells at 1 uM measured after 4 days by qRT-PCR analysis. It is filed as functional, cell-based. Conditions: time 4.0 day.
For data set [24], the target named is Phosphatidylinositol 4,5-bisphosphate 3-kinase catalytic subunit gamma isoform (Homo sapiens, UniProt P48736). Briefly: Inhibition of PI3Kgamma (unknown origin).
Sequence of Phosphatidylinositol 4,5-bisphosphate 3-kinase catalytic subunit gamma isoform (P48736 whole entry, canonical isoform): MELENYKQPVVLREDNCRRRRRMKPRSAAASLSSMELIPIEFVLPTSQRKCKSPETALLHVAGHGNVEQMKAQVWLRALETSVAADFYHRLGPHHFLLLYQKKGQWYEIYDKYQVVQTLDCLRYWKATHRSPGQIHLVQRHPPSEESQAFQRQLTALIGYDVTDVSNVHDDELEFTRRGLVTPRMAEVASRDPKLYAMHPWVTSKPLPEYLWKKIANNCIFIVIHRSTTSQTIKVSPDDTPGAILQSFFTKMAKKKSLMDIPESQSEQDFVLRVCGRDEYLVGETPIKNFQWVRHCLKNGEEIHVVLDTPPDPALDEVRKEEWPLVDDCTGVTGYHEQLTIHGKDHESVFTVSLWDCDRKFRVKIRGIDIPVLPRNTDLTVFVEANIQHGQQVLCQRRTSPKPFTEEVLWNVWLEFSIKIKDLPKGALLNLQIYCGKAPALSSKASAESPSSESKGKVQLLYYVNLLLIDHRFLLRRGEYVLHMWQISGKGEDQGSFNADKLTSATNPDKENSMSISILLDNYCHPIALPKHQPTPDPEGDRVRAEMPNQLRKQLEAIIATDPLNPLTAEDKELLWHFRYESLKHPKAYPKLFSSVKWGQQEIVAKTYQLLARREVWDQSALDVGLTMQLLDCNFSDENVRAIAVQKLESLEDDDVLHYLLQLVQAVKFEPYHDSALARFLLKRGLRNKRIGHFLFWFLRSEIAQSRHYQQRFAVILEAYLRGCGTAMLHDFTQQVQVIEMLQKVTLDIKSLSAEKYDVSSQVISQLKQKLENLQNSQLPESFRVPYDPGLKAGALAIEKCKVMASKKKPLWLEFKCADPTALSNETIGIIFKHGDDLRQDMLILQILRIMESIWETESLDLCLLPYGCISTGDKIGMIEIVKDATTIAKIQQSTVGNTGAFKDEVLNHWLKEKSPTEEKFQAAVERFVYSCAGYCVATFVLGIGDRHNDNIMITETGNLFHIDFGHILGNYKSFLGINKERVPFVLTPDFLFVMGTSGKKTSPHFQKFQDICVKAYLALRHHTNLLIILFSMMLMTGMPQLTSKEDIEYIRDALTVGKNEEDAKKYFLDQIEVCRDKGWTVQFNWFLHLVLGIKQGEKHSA
Data set [25] can be described thus: Toxicity in dog assessed as congestion in lymphoid organs measured for 28 days. Also noted: species or system Canis lupus familiaris. Particulars: in vivo, 672 h, time 28 day.
A further data set has as its system NCI-H510A. The data set can be described thus: Effect on NSE gene expression in human NCI-H510A cells at 1 uM measured after 4 to 7 days by qRT-PCR analysis. Conditions: time 4-7 day. Type of data set: functional, cell-based.
For data set [26], the target named is Tyrosine-protein kinase Lck (Homo sapiens, UniProt P06239). Briefly: Inhibition of LCK (unknown origin).
Sequence of Tyrosine-protein kinase Lck (P06239 whole entry): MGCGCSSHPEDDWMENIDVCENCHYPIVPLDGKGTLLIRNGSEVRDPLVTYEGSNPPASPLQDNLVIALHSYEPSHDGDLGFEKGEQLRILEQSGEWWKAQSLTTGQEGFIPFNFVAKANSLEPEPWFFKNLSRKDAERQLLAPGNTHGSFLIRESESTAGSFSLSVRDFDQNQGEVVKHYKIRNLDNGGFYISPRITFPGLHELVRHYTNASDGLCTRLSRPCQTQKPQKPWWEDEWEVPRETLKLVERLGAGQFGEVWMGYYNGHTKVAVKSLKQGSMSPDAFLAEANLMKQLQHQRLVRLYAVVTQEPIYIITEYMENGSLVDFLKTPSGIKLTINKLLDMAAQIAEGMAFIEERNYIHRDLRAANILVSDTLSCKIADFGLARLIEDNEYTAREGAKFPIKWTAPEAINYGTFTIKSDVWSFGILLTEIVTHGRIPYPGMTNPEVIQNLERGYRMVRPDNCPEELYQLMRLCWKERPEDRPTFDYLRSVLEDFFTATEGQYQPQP
A short description of data set [27]: Effect on cleaved PARP level in human NCI-H524 cells assessed as fold change at 10 nM measured after 10 days by Western blot analysis (reference value: 1.00). Particulars: time 10 day. It is filed as functional.
A short description of data set [28]: Toxicity in rat assessed as effect on ECG measured for 28 days. Particulars: in vivo, 672 h, time 28 day.
In the next data set the test system is NCI-H1417. The data set can be described thus: Effect on caspase-3 level in human NCI-H1417 cells upto 1000 nM measured after 10 days by Western blot analysis. Type of data set: functional, cell-based. Particulars: time 10.0 day.
Data set [29] can be described thus: Toxicity in rat assessed as suppression of platelet in bone marrow measured for 28 days. It is filed as cell-based. Conditions: 672 h, time 28 day.
Data set [30] can be described thus: Toxicity in rat assessed as morbidity measured for 28 days. Particulars: in vivo, 672 h, time 28 day.
Data set [31] can be described thus: Inhibition of Cav1.2 (unknown origin). Further details: species or system Homo sapiens.

The source made the active and inactive calls. No cut-off for these calls is given here.

Sequence of D(2) dopamine receptor (P14416 whole entry): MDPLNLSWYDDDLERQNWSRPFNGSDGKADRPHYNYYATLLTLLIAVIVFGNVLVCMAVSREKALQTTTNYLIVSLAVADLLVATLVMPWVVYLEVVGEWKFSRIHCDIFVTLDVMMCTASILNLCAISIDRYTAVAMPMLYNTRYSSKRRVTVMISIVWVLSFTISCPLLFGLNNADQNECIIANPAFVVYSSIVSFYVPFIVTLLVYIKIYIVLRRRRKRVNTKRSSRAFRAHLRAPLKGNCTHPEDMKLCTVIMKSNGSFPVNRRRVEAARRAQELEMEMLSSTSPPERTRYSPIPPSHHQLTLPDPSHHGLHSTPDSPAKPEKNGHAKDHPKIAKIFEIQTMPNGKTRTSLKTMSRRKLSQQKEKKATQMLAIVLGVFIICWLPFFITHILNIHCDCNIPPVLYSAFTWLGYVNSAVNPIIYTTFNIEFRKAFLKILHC
Sequence of Beta-2 adrenergic receptor (P07550 whole entry): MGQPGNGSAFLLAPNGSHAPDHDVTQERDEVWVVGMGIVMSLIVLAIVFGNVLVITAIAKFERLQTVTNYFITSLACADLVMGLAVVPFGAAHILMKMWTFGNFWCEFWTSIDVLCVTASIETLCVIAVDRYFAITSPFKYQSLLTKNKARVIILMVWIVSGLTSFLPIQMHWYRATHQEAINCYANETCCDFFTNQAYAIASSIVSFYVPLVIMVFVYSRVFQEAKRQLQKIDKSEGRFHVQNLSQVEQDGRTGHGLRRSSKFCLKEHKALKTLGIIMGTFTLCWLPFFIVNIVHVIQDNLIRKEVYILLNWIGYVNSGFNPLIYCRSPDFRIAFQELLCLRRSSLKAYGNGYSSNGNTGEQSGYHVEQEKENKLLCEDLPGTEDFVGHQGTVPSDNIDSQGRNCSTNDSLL
Sequence of Amine oxidase [flavin-containing] B (P27338 whole entry): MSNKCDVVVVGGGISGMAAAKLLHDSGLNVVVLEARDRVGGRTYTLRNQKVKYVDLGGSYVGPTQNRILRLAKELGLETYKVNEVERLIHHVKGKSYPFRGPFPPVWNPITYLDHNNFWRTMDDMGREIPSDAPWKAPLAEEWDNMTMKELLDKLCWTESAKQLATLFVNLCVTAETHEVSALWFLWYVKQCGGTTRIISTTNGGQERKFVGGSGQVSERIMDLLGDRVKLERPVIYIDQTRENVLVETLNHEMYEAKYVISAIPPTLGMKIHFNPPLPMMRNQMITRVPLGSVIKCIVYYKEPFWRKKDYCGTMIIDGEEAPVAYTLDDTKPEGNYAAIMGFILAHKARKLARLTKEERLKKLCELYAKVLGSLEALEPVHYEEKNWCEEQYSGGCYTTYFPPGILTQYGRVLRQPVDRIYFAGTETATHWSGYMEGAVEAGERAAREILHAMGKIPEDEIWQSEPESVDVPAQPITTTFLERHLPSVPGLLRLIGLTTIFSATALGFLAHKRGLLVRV

Consider `O=C(O)c1ccc(CN2CCC(CN[C@@H]3C[C@H]3c3ccccc3)CC2)cc1` [GSK2879552], for which the concentration giving a half-maximal response (EC50) was greater than 100 µM at D(2) dopamine receptor; greater than 40 µM at Substance-P receptor; greater than 16 µM in data set [3]; greater than 32 µM in data set [12]; greater than 30 µM on Vasopressin V1a receptor. The Activity was 0.17 in data set [1]; 0.31 in data set [2]; “Toxic” in [4]; 1.45 in [5]; 0.04 in data set [6]; “Toxic” in data set [9]. In addition, the Activity in data set [11] is listed as 0.02; in data set [13], 0.02; in [21], “Non-Toxic”; in [25], “Toxic”; in [28] it was “Toxic”; in [29] it was “Toxic”. In addition, the Activity entry in data set [30] is reported as “Toxic”. Moreover, the “fold change (FC)” value in [7] came to 1.32; in data set [8], 1.44; in [10] it was 0.89; in [14], 0.71; in data set [16], 1.44; in data set [20], 2.14. The “fold change (FC)” value in data set [22] turned out to be 3.48; in [27], 0.81. Moreover, in the data set on NCI-H526 [15], the inhibition result was “Dose-Dependent Effect”. In addition, the half-maximal inhibitory concentration (IC50) is 20 µM in [17]; 25 µM in [18]; greater than 25 µM in [19]; greater than 32 µM in data set [24]; greater than 32 µM in data set [26]. Besides, the outcome in the data set on NCI-H526 [23] was Active. In addition, the result with NCI-H446, in the data set on NCI-H510A and in the data set with NCI-H1417 was inactive.
As for `c1ccc([C@@H]2C[C@H]2NC2CCNCC2)cc1`, the EC50 was greater than 100 µM at D(2) dopamine receptor; greater than 25 µM at Substance-P receptor; greater than 30 µM in [3]; greater than 100 µM in [12]; greater than 30 µM on Vasopressin V1a receptor. The IC50 was greater than 100 µM in data set [31]; greater than 100 µM in data set [18]; greater than 30 µM in data set [19]; greater than 32 µM in data set [24]; greater than 32 µM in data set [26].

As a reminder, the EC50 is the concentration that produces a half-maximal response. Read a high EC50 as lower potency in that assay. One may read the IC50 as the concentration at which inhibition is half-maximal. The low end stands for greater potency in that assay, the high end for weaker potency in that assay.

(Values after ChEMBL document CHEMBL5705903, “A DNA Hypomethylation Signature Predicts Antitumor Activity of LSD1 Inhibitors in SCLC” (Cancer Cell, 2015).)
